This is an account of results in US10444149B2, “Fluorescent compounds as sensing agents” (OHIO NORTHERN UNIVERSITY, priority 2016, dated 2019).

Molecules are shown by their SMILES. Marks after values point to notes of the source that are not given here.

Data set [1] can be described thus: Peak absorption wavelength, peak emission wavelength and fluorescent quantum yield. Type of data set: physicochemical. The source says: Table 2 provides a peak absorption wavelength (λabs maximum), peak emission wavelength (λem maximum), a fluorescent quantum yield (ΦF), and a synthesis yield for the various compounds. The synthesis yield is based on the synthetic pathway illustrated in FIG. 1.

Data set [2] can be described thus: Emission spectrum on exposure to varying amounts of (NH4)2Fe(SO4)2.6H2O. To be noted: methanol; FIG. 6. The procedure: (§1) Compound 11 was dissolved in methanol and then exposed to varying amounts of FeCl3 (i.e., Fe^3+) or (NH4)2Fe(SO4)2.6H2O (i.e., Fe^2+). […] Therefore, Compound 11 may be used to detect Fe^3+ while in the presence of Fe^2+.
Data set [3] in a line: Emission spectrum on exposure to varying amounts of FeCl3. To be noted: for total red-shift in peak emission wavelength: at saturation with Fe^3+. The procedure:
Two substituted chromones (Compound 11 and Compound 20) were dissolved in methanol and exposed to varying amounts of FeCl3 (i.e., Fe^3+). FIG. 4 illustrates the shift in emission spectrum of Compound 11 with increasing amounts of Fe^3+ ions. With about 10 equivalents of Fe^3+ ions, the shift in emission spectrum is saturated, with a total of about a 30 nm red-shift in peak emission wavelength. FIG. 5 illustrates the shift in emission spectrum of Compound 20 with increasing amounts of Fe^3+ ions. With about 10 equivalents of Fe^3+ ions, the shift in emission spectrum is saturated, with a total of about a 50 nm red-shift in peak emission wavelength.
Compound 11 was dissolved in various solvents and then exposed to varying amounts of FeCl3 (i.e., Fe^3+).
as §1

The nature of data set [4]: Emission spectrum on exposure to varying amounts of lead nitrate. The procedure:
Compound 20 was dissolved in methanol and then exposed to varying amounts of […] (i.e., Pb^2+). […] Therefore, a kit, method, system, or the like may utilize a specific solvent system for detection of lead or other Ions. Alternatively, and especially where the metal ion concentration is unknown, a kit, method, system, or the like may utilize a series of solvent systems in parallel to determine a concentration of metal ions.
A 5 μM sample of Compound 25 in 3:1 tetrahydrofuran:methanol or 2:1 tetrahydrofuran:methanol was prepared and exposed to varying amounts of Pb(NO3)2 (i.e., Pb^2+) dissolved in deionized water.

Take `COC(=O)C(C)(C)C1Oc2ccccc2C(=O)/C1=C\O` (stereo not drawn) [Compound 5, (Z)-methyl 2-(3-(hydroxymethylene)-4-oxochroman-2-yl)-2-methylpropanoate]: in data set [1] (solvent dichloromethane), the ΦF is recorded as 6* %, the λabs maximum is given as 362 nm and the λem maximum stood at 446 nm.

In the case of `COC(=O)C(C)(C)C1Oc2ccc(OC)cc2C(=O)/C1=C\O` (stereo not drawn) [Compound 11, (Z)-methyl-2-(3-(hydroxymethylene)-6-methoxy-4-oxochroman-2-yl)-2-methylpropanoate], in data set [1] (solvent dichloromethane), the ΦF is given as 20* %, the λabs maximum was 383 nm and the λem maximum is reported as 482 nm. For the same compound, in data set [2], the “intensity change of peak emission with increasing metal ion concentration” value is on record as “intensity decrease” and the “shift of peak emission wavelength” value is “does not exhibit appreciable shift”. In addition, the “red-shift in peak emission wavelength” value in data set [3] (1:1 methanol:water as solvent) is reported as “still exhibits a red-shift in peak emission wavelength”. Also, in data set [3] (methanol), the “amount of Fe^3+ ions at which the shift in emission spectrum is saturated” value is on record as “about 10 equivalents” and the “total red-shift in peak emission wavelength” value is reported as roughly 30 nm. In data set [3] (methanol, FIG. 4), the “intensity change of peak emission with increasing metal ion concentration” value is given as “intensity decrease” and the “shift of peak emission wavelength” value is on record as “significant red-shift”. The “red-shift in peak emission wavelength” value in data set [3] (polar aprotic solvents: tetrahydrofuran, acetonitrile, acetone) is given as “did not exhibit an appreciable red-shift”. Moreover, in data set [3] (polar protic solvents: water, methanol, mixtures thereof), the “red-shift in peak emission wavelength” value is “exhibited an appreciable red-shift”.

As to `COC(=O)C(C)(C)C1Oc2ccc(OC)cc2C(=O)/C1=C\NS(=O)(=O)c1ccc(C)cc1` (stereo not drawn) [Compound 22, (Z)-methyl-2-(6-methoxy-3-(((4-methylphenyl)sulfonamido)methy-lene)-4-oxochroman-2-yl)-2-methylpropanoate], in data set [1] (solvent dichloromethane), the ΦF is 66* %, the λabs maximum is listed as 390 nm and the λem maximum turned out to be 529 nm.

For `CCc1ccc2c(c1)C(=O)/C(=C\NS(=O)(=O)c1ccc(C)cc1)C(C(C)(C)C(=O)OC)O2` (stereo not drawn) [Compound 20, (Z)-methyl 2-(6-ethyl-3-((4-methylphenylsulfonamido)methy-lene)-4-oxochroman-2-yl)-2-methylpropanoate], the ΦF in data set [1] (solvent acetonitrile) was 16** %; in data set [1] (solvent cyclohexane), 30*** %; in data set [1] (solvent dichloromethane), 73* %. The figures for the λabs maximum in data set [1] (solvent acetonitrile), in data set [1] (solvent cyclohexane) and in data set [1] (solvent dichloromethane) were 369 nm, 364 nm and 370 nm, respectively. Moreover, the λem maximum is 496 nm in data set [1] (solvent acetonitrile), 481 nm in data set [1] (solvent cyclohexane) and 490 nm in data set [1] (solvent dichloromethane). Besides, the “red-shift in peak emission wavelength” value in data set [3] (1:1 methanol:water as solvent) is on record as “does not”. Also, the “amount of Fe^3+ ions at which the shift in emission spectrum is saturated” value in data set [3] (methanol) is given as “about 10 equivalents”. Besides, the “total red-shift in peak emission wavelength” value in data set [3] (methanol) is reported as roughly 50 nm. The results for the “amount of Pb^2+ at max shift in peak emission wavelength” value in data set [4] (1:1 tetrahydrofuran:methanol) and in data set [4] (3:1 tetrahydrofuran:methanol) were “about 5 equivalents” and “about 3 equivalents”, respectively. For the same compound, the “shift in peak emission wavelength” value in data set [4] (THF alone) is reported as “no appreciable shift in peak emission wavelength”. Moreover, the “amount of Pb^2+ at which the shift in peak emission wavelength maxes out” value in data set [4] (methanol) came to 10 equivalents. For the same compound, the “shift in peak emission wavelength at 1 equivalent Pb^2+” value is given as “no appreciable shift” in data set [4] (methanol) and “appreciable shift” in data set [4] (mixed tetrahydrofuran/methanol).

With `COC(=O)C(C)(C)C1Oc2ccccc2C(=O)/C1=C\NS(=O)(=O)c1ccc(OC)cc1` (stereo not drawn) [Compound 23, (Z)methyl-2-(3-(((4-methoxyphenyl)sulfonamido)methy-lene)-4-oxochroman-2-yl)-2-methylpropanoate], in data set [1] (solvent dichloromethane), the ΦF is listed as 38* %, the λabs maximum was 358 nm and the λem maximum is on record as 479 nm.

For the compound `COC(=O)C(C)(C)C1Oc2ccc(C)cc2C(=O)/C1=C\NS(=O)(=O)c1ccc(C)cc1` (stereo not drawn) [Compound 19, (Z)-methyl 2-methyl-2-(6-methyl-3-((4-methylphenylsulfonamido)methy-lene)-4-oxochroman-2-yl)propanoate], in data set [1] (solvent acetonitrile), the ΦF is listed as 8** %, the λabs maximum is given as 380 nm and the λem maximum stood at 468 nm. Further, in data set [1] (solvent cyclohexane), the ΦF is 27*** %, the λabs maximum was found to be 364 nm and the λem maximum came to 479 nm. Moreover, in data set [1] (solvent dichloromethane), the ΦF was 70* %, the λabs maximum worked out at 367 nm and the λem maximum came out at 492 nm.

Regarding `COC(=O)CC1Oc2ccc(OC)cc2C(=O)/C1=C\NS(=O)(=O)c1ccc(OC)cc1` (stereo not drawn) [Compound 26, (Z)-methyl-2-(6-methoxy-3-(((4-methoxyphenyl)sulfonamido)methy-lene)-4-oxochroman-2-yl)acetate], in data set [1] (solvent dichloromethane), the ΦF is given as 67* %, the λabs maximum is 386 nm and the λem maximum is listed as 529 nm.

Take `COC(=O)C(C)(C)C1Oc2ccc(C(C)C)cc2C(=O)/C1=C\NS(=O)(=O)c1ccc(C)cc1` (stereo not drawn) [Compound 21, (Z)methyl-2-(6-isopropyl-3-(((4-methylphenyl)sulfonamido)methy-lene)-4-oxochroman-2-yl)-2-methylpropanoate]: in data set [1] (solvent dichloromethane), the ΦF was 71* %, the λabs maximum worked out at 368 nm and the λem maximum was determined as 490 nm.

`COC(=O)C(C)(C)C1Oc2ccc(C)cc2C(=O)/C1=C\NS(=O)(=O)c1ccc(OC)cc1` (stereo not drawn) [Compound 24, (Z)methyl-2-(3-(((4-methoxyphenyl)sulfonamido)methy-lene)-6-methyl-4-oxochroman-2-yl)-2-methylpropanoate]: in data set [1] (solvent dichloromethane), the ΦF was 72* %, the λabs maximum is on record as 367 nm and the λem maximum is recorded as 492 nm.

Regarding `COC(=O)C(C)(C)C1Oc2ccc(F)cc2C(=O)/C1=C\NS(=O)(=O)c1ccc(C)cc1` (stereo not drawn) [Compound 16, (Z)-methyl 2-(6-fluoro-3-((4-methylphenylsulfonamido)methy-lene)-4-oxochroman-2-yl)-2-methylpropanoate], in data set [1] (solvent dichloromethane), the ΦF was 33* %, the λabs maximum stood at 367 nm and the λem maximum stood at 492 nm.

On to `COC(=O)C(C)(C)C1Oc2ccc(F)cc2C(=O)/C1=C\O` (stereo not drawn) [Compound 6, (Z)-methyl 2-(6-fluoro-3-(hydroxymethylene)-4-oxochroman-2-yl)-2-methylpropanoate], for which, in data set [1] (solvent dichloromethane), the ΦF was 2* %, the λabs maximum was 364 nm and the λem maximum turned out to be 486 nm.

`COC(=O)C(C)(C)C1Oc2ccccc2C(=O)/C1=C\NS(=O)(=O)c1ccc(C)cc1` (stereo not drawn) [Compound 15, (Z)-methyl 2-methyl-2-(3-((4-methylphenylsulfonamido)methy-lene)-4-oxochroman-2-yl)propanoate]: in data set [1] (solvent dichloromethane), the ΦF is 37* %, the λabs maximum worked out at 358 nm and the λem maximum stood at 479 nm.

For the compound `COC(=O)C(C)(C)C1Oc2c(Br)cc(Br)cc2C(=O)/C1=C\O` (stereo not drawn) [Compound 14, (Z)-methyl 2-(6,8-dibromo-3-(hydroxymethylene)-4-oxochroman-2-yl)-2-methylpropanoate], in data set [1] (solvent dichloromethane), the ΦF was 3* %, the λabs maximum was 371 nm and the λem maximum was 451 nm.

As for `COC(=O)C(C)(C)C1Oc2ccc(Cl)cc2C(=O)/C1=C\NS(=O)(=O)c1ccc(C)cc1` (stereo not drawn) [Compound 17, (Z)-methyl 2-(6-chloro-3-((4-methylphenylsulfonamido)methy-lene)-4-oxochroman-2-yl)-2-methylpropanoate], in data set [1] (solvent dichloromethane), the ΦF was 39* %, the λabs maximum was found to be 367 nm and the λem maximum was 483 nm.

`COC(=O)C(C)(C)C1Oc2ccc(Br)cc2C(=O)/C1=C\NS(=O)(=O)c1ccc(C)cc1` (stereo not drawn) [Compound 18, (Z)-methyl 2-(6-bromo-3-((4-methylphenylsulfonamido)methy-lene)-4-oxochroman-2-yl)-2-methylpropanoate]: in data set [1] (solvent dichloromethane), the ΦF is recorded as 34* %, the λabs maximum is recorded as 343 nm and the λem maximum stood at 483 nm.
